# Data taken from the NIST ThermoML archive (doi:10.1016/j.jct.2017.07.012).
# ± gives the expanded uncertainty stated by the source.
# Legend:
# [1] = activity coefficient (dimensionless); of the first substance listed, at infinite dilution; xn = mol fraction of the nth substance listed; settings: 101.33 kPa, Liquid, Chromatography, x1 = 0
# [2] = 101.33 kPa, Liquid, Vibrating tube method
SMILES,activity coefficient ([1]; 303.15 K),activity coefficient ([1]; 313.15 K),activity coefficient ([1]; 323.15 K),activity coefficient ([1]; 333.15 K),activity coefficient ([1]; 343.15 K),activity coefficient ([1]; 353.15 K),mass density ([2]; 303.15 K),mass density ([2]; 313.15 K),mass density ([2]; 323.15 K),mass density ([2]; 333.15 K),mass density ([2]; 343.15 K),mass density ([2]; 353.15 K)
ClCCl [dichloromethane] + CCCCn1cc[n+](C)c1.[O-][Cl+3]([O-])([O-])[O-],0.84 ± 0.09,0.91 ± 0.09,0.96 ± 0.1,1.01 ± 0.1,1.1 ± 0.11,1.13 ± 0.12,,,,,,
CC(C)O [propan-2-ol] + CCCCn1cc[n+](C)c1.[O-][Cl+3]([O-])([O-])[O-],2.27 ± 0.24,2.18 ± 0.23,2.06 ± 0.22,2.06 ± 0.22,1.93 ± 0.2,1.92 ± 0.2,,,,,,
"Cc1cccc(C)c1 [1,3-dimethylbenzene] + CCCCn1cc[n+](C)c1.[O-][Cl+3]([O-])([O-])[O-]",,,4.99 ± 0.52,5.08 ± 0.53,5.28 ± 0.55,5.36 ± 0.56,,,,,,
CCCCO [butan-1-ol] + CCCCn1cc[n+](C)c1.[O-][Cl+3]([O-])([O-])[O-],,,,2.73 ± 0.29,2.49 ± 0.26,2.39 ± 0.25,,,,,,
CCC(C)O (centres undefined) [butan-2-ol] + CCCCn1cc[n+](C)c1.[O-][Cl+3]([O-])([O-])[O-],,2.91 ± 0.31,2.66 ± 0.28,2.61 ± 0.27,2.47 ± 0.26,2.37 ± 0.25,,,,,,
CCCCCCCCCC [decane] + CCCCn1cc[n+](C)c1.[O-][Cl+3]([O-])([O-])[O-],226 ± 24,219 ± 23,217 ± 23,204 ± 22,200 ± 21,192 ± 20,,,,,,
CCCCCCCC [octane] + CCCCn1cc[n+](C)c1.[O-][Cl+3]([O-])([O-])[O-],109 ± 12,111 ± 12,119 ± 12,119 ± 13,122 ± 13,127 ± 13,,,,,,
CCc1ccccc1 [ethylbenzene] + CCCCn1cc[n+](C)c1.[O-][Cl+3]([O-])([O-])[O-],,,5.05 ± 0.53,5.11 ± 0.54,5.29 ± 0.56,5.35 ± 0.56,,,,,,
CC#N [acetonitrile] + CCCCn1cc[n+](C)c1.[O-][Cl+3]([O-])([O-])[O-],0.61 ± 0.07,0.62 ± 0.07,0.63 ± 0.07,0.65 ± 0.07,0.67 ± 0.07,0.69 ± 0.07,,,,,,
CCCO [propan-1-ol] + CCCCn1cc[n+](C)c1.[O-][Cl+3]([O-])([O-])[O-],,,2.05 ± 0.22,1.99 ± 0.21,1.87 ± 0.2,1.82 ± 0.19,,,,,,
CC(C)CO [2-methyl-1-propanol] + CCCCn1cc[n+](C)c1.[O-][Cl+3]([O-])([O-])[O-],,,2.9 ± 0.3,2.67 ± 0.28,2.48 ± 0.26,2.32 ± 0.24,,,,,,
CC1CCCCC1 [methylcyclohexane] + CCCCn1cc[n+](C)c1.[O-][Cl+3]([O-])([O-])[O-],46.5 ± 4.9,46.7 ± 4.9,47 ± 5,47.3 ± 5,47.3 ± 5,47.8 ± 5,,,,,,
"CC(C)CC(C)(C)C [2,2,4-trimethylpentane] + CCCCn1cc[n+](C)c1.[O-][Cl+3]([O-])([O-])[O-]",100 ± 11,102 ± 11,107 ± 11,119 ± 12,122 ± 13,125 ± 13,,,,,,
ClC(Cl)Cl [trichloromethane] + CCCCn1cc[n+](C)c1.[O-][Cl+3]([O-])([O-])[O-],0.78 ± 0.08,0.87 ± 0.09,0.93 ± 0.09,0.98 ± 0.1,1.1 ± 0.11,1.16 ± 0.12,,,,,,
C=Cc1ccccc1 [styrene] + CCCCn1cc[n+](C)c1.[O-][Cl+3]([O-])([O-])[O-],,,,2.29 ± 0.24,2.42 ± 0.25,2.5 ± 0.26,,,,,,
CO [methanol] + CCCCn1cc[n+](C)c1.[O-][Cl+3]([O-])([O-])[O-],1.07 ± 0.11,1.06 ± 0.11,1.05 ± 0.11,1.02 ± 0.1,1.01 ± 0.1,1 ± 0.1,,,,,,
C1=CCCCC1 [cyclohexene] + CCCCn1cc[n+](C)c1.[O-][Cl+3]([O-])([O-])[O-],15.1 ± 1.6,14.8 ± 1.6,14.7 ± 1.6,14.6 ± 1.5,14.4 ± 1.5,14.2 ± 1.5,,,,,,
CCCCCCCCC [nonane] + CCCCn1cc[n+](C)c1.[O-][Cl+3]([O-])([O-])[O-],151 ± 16,142 ± 15,142 ± 15,137 ± 14,135 ± 14,133 ± 14,,,,,,

SMILES,activity coefficient ([1]; 303.15 K),activity coefficient ([1]; 313.15 K),activity coefficient ([1]; 323.15 K),activity coefficient ([1]; 333.15 K),activity coefficient ([1]; 343.15 K),activity coefficient ([1]; 353.15 K),mass density ([2]; 303.15 K),mass density ([2]; 313.15 K),mass density ([2]; 323.15 K),mass density ([2]; 333.15 K),mass density ([2]; 343.15 K),mass density ([2]; 353.15 K)
CCCCCO [pentan-1-ol] + CCCCn1cc[n+](C)c1.[O-][Cl+3]([O-])([O-])[O-],,,,3.88 ± 0.41,3.55 ± 0.37,3.23 ± 0.34,,,,,,
CC(C)=O [acetone] + CCCCn1cc[n+](C)c1.[O-][Cl+3]([O-])([O-])[O-],0.84 ± 0.09,0.91 ± 0.09,0.94 ± 0.1,0.98 ± 0.1,1.05 ± 0.11,1.08 ± 0.11,,,,,,
CCO [ethanol] + CCCCn1cc[n+](C)c1.[O-][Cl+3]([O-])([O-])[O-],1.67 ± 0.17,1.59 ± 0.17,1.59 ± 0.17,1.5 ± 0.16,1.45 ± 0.15,1.44 ± 0.15,,,,,,
CCCCn1cc[n+](C)c1.[O-][Cl+3]([O-])([O-])[O-] [1-butyl-3-methylimidazolium perchlorate],,,,,,,1247.87 ± 2.4 kg/m3,1240.83 ± 2.4 kg/m3,1233.88 ± 2.4 kg/m3,1227.01 ± 2.4 kg/m3,1220.19 ± 2.4 kg/m3,1213.44 ± 2.4 kg/m3
"Cc1ccccc1C [1,2-dimethylbenzene] + CCCCn1cc[n+](C)c1.[O-][Cl+3]([O-])([O-])[O-]",,,4.09 ± 0.43,4.16 ± 0.44,4.27 ± 0.45,4.37 ± 0.46,,,,,,
CCOC(C)=O [ethyl acetate] + CCCCn1cc[n+](C)c1.[O-][Cl+3]([O-])([O-])[O-],2.22 ± 0.23,2.31 ± 0.24,2.46 ± 0.26,2.54 ± 0.27,2.69 ± 0.28,2.78 ± 0.29,,,,,,
O [water] + CCCCn1cc[n+](C)c1.[O-][Cl+3]([O-])([O-])[O-],,,,1.02 ± 0.1,1.01 ± 0.1,1 ± 0.1,,,,,,
"Cc1ccc(C)cc1 [1,4-dimethylbenzene] + CCCCn1cc[n+](C)c1.[O-][Cl+3]([O-])([O-])[O-]",,,4.82 ± 0.51,4.91 ± 0.52,5.13 ± 0.54,5.21 ± 0.55,,,,,,
CC(C)CCO [3-methylbutan-1-ol] + CCCCn1cc[n+](C)c1.[O-][Cl+3]([O-])([O-])[O-],,,,3.49 ± 0.37,3.21 ± 0.34,2.97 ± 0.31,,,,,,
C1CCCCC1 [cyclohexane] + CCCCn1cc[n+](C)c1.[O-][Cl+3]([O-])([O-])[O-],34.5 ± 3.6,34.6 ± 3.6,35.2 ± 3.7,35.4 ± 3.7,36.2 ± 3.8,37.5 ± 4,,,,,,
Cc1ccccc1 [toluene] + CCCCn1cc[n+](C)c1.[O-][Cl+3]([O-])([O-])[O-],,2.96 ± 0.31,3.1 ± 0.33,3.14 ± 0.33,3.29 ± 0.35,3.38 ± 0.36,,,,,,
ClC(Cl)(Cl)Cl [tetrachloromethane] + CCCCn1cc[n+](C)c1.[O-][Cl+3]([O-])([O-])[O-],3.61 ± 0.38,3.93 ± 0.41,4.1 ± 0.43,4.22 ± 0.44,4.6 ± 0.48,4.67 ± 0.49,,,,,,
CCCCCC [hexane] + CCCCn1cc[n+](C)c1.[O-][Cl+3]([O-])([O-])[O-],81.7 ± 8.6,89.2 ± 9.4,98 ± 10,107 ± 11,112 ± 12,118 ± 12,,,,,,
"C1COCCO1 [1,4-dioxane] + CCCCn1cc[n+](C)c1.[O-][Cl+3]([O-])([O-])[O-]",,,1 ± 0.1,1.02 ± 0.1,1.1 ± 0.11,1.14 ± 0.12,,,,,,
CCCCCCC [heptane] + CCCCn1cc[n+](C)c1.[O-][Cl+3]([O-])([O-])[O-],85.9 ± 9.1,91.6 ± 9.7,99.1 ± 10,108 ± 11,115 ± 12,121 ± 13,,,,,,
c1ccccc1 [benzene] + CCCCn1cc[n+](C)c1.[O-][Cl+3]([O-])([O-])[O-],1.78 ± 0.19,1.82 ± 0.19,1.97 ± 0.21,2 ± 0.21,2.08 ± 0.22,2.17 ± 0.23,,,,,,
C1CCOC1 [tetrahydrofuran] + CCCCn1cc[n+](C)c1.[O-][Cl+3]([O-])([O-])[O-],1.5 ± 0.16,1.57 ± 0.16,1.67 ± 0.17,1.94 ± 0.2,1.94 ± 0.2,2.06 ± 0.22,,,,,,
